What was measured:
BEAS-2B cells = assay: Cytokine ELISA in BEAS-2B cells; type: cell-based, human; conditions: 0.5, 1, 2 or 4 μg/mL, 24 hours, compared to untreated cells
Description: (§1) Protocol: BEAS-2B cells were grown in tissue culture flasks and a 24-well plate was seeded with 2×10^5 cells/well and incubated at 37° C. and 5% CO2 for 48 hours. Select wells were treated with either 4 μg/mL, 2 μg/mL, 1 μg/mL, or 0.5 μg/mL BisEDT or left untreated as a control and incubated at 37° C. and 5% CO2 for 24 hours. Cell culture supernatant was collected from each well and stored at −20° C. until further ELISA analysis. On the day of the ELISA assays to determine the expression of each cytokine, cell culture supernatant was thawed, and the assays performed following the manufacturer's instructions. Cells were collected for RNA isolation using Qiagen RNeasy kit using manufacturers' instructions. Briefly, genomic DNA was degraded with DNase (Roche) and samples were incubated at 37° C. for 1 hour followed by 3 μL DNase inactivation reagent (Invitrogen) incubated at 37° C. for 2 minutes. Samples were centrifuged at maximum speed for 5 minutes to remove the inactivation reagent. RNA concentration and quality was evaluated using a Nanodrop. RNA samples were utilized to generate cDNA using cDNA synthesis kit (Bio-Rad). qPCR for AIM2 and actin (housekeeping gene) was conducted using SYBR green kit (Bio-Rad) along with standards.

Hypo-InflammaSkin models = assay: Ex vivo human skin model of psoriasis (Hypo-InflammaSkin), cytokine release in culture medium; type: cell-based; conditions: for secretion of IL-22: Day 7 (FIG. 13R); for secretion of MIP-3α: Day 7 (FIG. 13S)
Text: Background: InflammaSkin® model is a validated psoriasis-like model developed to reproduce key features of pro-Th17/Th1 inflammation associated with psoriasis. It relies on the in situ activation of resident T-cell of normal skin biopsies and their further polarization into Th17/Th1 phenotype with the supplementation of culture medium with a cocktail of pro-inflammatory cytokines.
Model production and culture: 2 HypoSkin models of 15 mm in diameter (1.76 cm^2) were produced from 1 donor and cultured with 2 mL standard HypoSkin® medium. 20 Hypo-InflammaSkin models were produced from 1 donor by inducing in sit activation and Th17/Th1 polarization of skin resident T cells with proprietary cocktail and cultured with 2 mL Hypo-InflammaSkin® culture medium. The total treatable surface area of the models was 113 mm^2, and dosing of BisEDT took this into account based on dosing of the topical treatment. Models were maintained in standard cell culture conditions for the whole culture duration at 37° C., 5% CO2 and water saturation, with appropriate culture medium renewed every day.
Treatment Groups: Model Treatment: (1) HypoSkin® untreated control; (2) Hypo-InflammaSkin® untreated control; (3) topical betamethasone (positive control); (4) topical BisEDT—2.5 mg/mL (treatment applied every day from day 0 to 6; (5) topical BisEDT—1.25 mg/mL (treatment applied every day from day 3 to 6). N=3 per treatment group, except N=5 for Hypo-InflammaSkin® and N=1 for HypoSkin®.
Topical Treatment—Betamethasone (control): 25 μL of betamethasone was topically applied onto the surface of each skin model. Topical application was performed from Day 0 to Day 6 after removal of the previous treatment residues using a cotton swab.
Topical Treatment—BisEDT: 36 μL of the test compound was topically applied onto the surface of each skin model, massaging across the entire surface area for 1 minute, using a parafilm wrapped cotton swab; the compound was left on the skin. Topical application was performed from Day 0 to Day 6 (Treatment Group 4) or Day 3 to Day 6 (Treatment Group 5). A total of 9 models were topically treated.
Culture Media—culture media was collected on Day 3 prior to treatment application and on Day 7 and frozen at −80° C. A total of 42 culture media samples were collected.
IL-22 release: IL-22 release was measured in culture media using ELISA Human IL-22 Quantikine Kit (Bio-techne, ref D2200). Only samples from control conditions 1 to 3 were analyzed to assess donor's response to T cell activation. Each sample was analyzed in duplicate.
MSD Immunoassay—cytokine release (IL-2, IL-13, IL-15, IL-17A, IL-22, TNF-α, INF-γ, MIP-1β, and […]) in the culture medium was measured using the V-PLEX Plus Human Cytokine Kit (KI5089G, MesoScale Discovery) (FIGS. 13D-13S).

AIM2 inflammasome = assay: qPCR of AIM2 in BEAS-2B cells; type: cell-based, human; conditions: 0.5-4 μg/mL, 24 hours
Description: as §1

[1] = Day 3, compared to HypoInflammaSkin
[2] = Day 7, compared to untreated HypoInflammaSkin controls

Structure (SMILES): C1C[S][Bi]([S]CC[S][Bi]2[S]CC[S]2)[S]1 [BisEDT, 1,2-(Bis(1,3-dithia-2-bismolane)thio)ethane]
- expression of IL-1β (BEAS-2B cells): Consistent reduction
- expression of IL-10 (BEAS-2B cells): consistent increase
- expression of TNF-α (BEAS-2B cells): Consistent reduction
- MIP-1β levels vs betamethasone (Hypo-InflammaSkin models): lower than the steroid betamethasone
- reducing/preventing inflammation induced in the HypoInflammaSkin models, vs betamethasone (Hypo-InflammaSkin models): more effective than betamethasone
- secretion of IL-13 (Hypo-InflammaSkin models; [1]): reduced secretion
- secretion of IL-15 (Hypo-InflammaSkin models; [1]): reduced secretion
- secretion of IL-17A (Hypo-InflammaSkin models; [1]): reduced secretion
- secretion of INF-γ (Hypo-InflammaSkin models; [1]): reduced secretion
- secretion of MIP-110 (Hypo-InflammaSkin models; [1]): reduced secretion
- secretion of TNF-α (Hypo-InflammaSkin models; [1]): reduced secretion
- IL-17A secretion (Hypo-InflammaSkin models; Day 3 and Day 7 (FIGS. 13D, 13E), compared to untreated HypoInflammaSkin): notable reduction
- TNF-α (Hypo-InflammaSkin models; Day 3 and Day 7 (FIGS. 13F, 13G), compared to untreated HypoInflammaSkin control): reduction
- IFNγ secretion (Hypo-InflammaSkin models; Day 3 and Day 7 (FIGS. 13H, 13I), compared to untreated HypoInflammaSkin control): reduced
- secretion of MIP-1β (Hypo-InflammaSkin models; Day 3 and Day 7 (FIGS. 13L, 13M), compared to untreated HypoInflammaSkin): statistically significant decrease
- MIP-1β level (Hypo-InflammaSkin models; Day 7): two out of three replicates below LOQ
- secretion of IL-22 (Hypo-InflammaSkin models; compared to untreated HypoInflammaSkin control, listed as Pravibismane): reduced secretion
- secretion of IL-22 (Hypo-InflammaSkin models; compared to untreated HypoInflammaSkin control, listed as pravibismane): continued to decrease
- secretion of MIP-3α (Hypo-InflammaSkin models; compared to untreated HypoInflammaSkin, listed as Pravibismane): statistically significant decrease
- secretion of MIP-3α (Hypo-InflammaSkin models; compared to untreated HypoInflammaSkin, listed as pravibismane): continued to decrease
- secretion of IFN-γ (Hypo-InflammaSkin models; [2]): continued to decrease
- secretion of IL-13 (Hypo-InflammaSkin models; [2]): continued to decrease
- secretion of IL-15 (Hypo-InflammaSkin models; [2]): continued to decrease
- secretion of IL-17A (Hypo-InflammaSkin models; [2]): continued to decrease
- secretion of MIP-1β (Hypo-InflammaSkin models; [2]): continued to decrease
- secretion of TNF-α (Hypo-InflammaSkin models; [2]): continued to decrease
- IL-15 secretion (Hypo-InflammaSkin models; pravibismane (day 3), compared to untreated HypoInflammaSkin): statistically significant reduction
- IL-15 secretion vs HypoSkin untreated (Hypo-InflammaSkin models; pravibismane treatment (day 3)): even lower than healthy uninflamed skin
- IL-17A levels vs positive control (betamethasone) (Hypo-InflammaSkin models; topical, started at day 0 or day 3): even lower than positive control
- IL-13 secretion (Hypo-InflammaSkin models; treatment from day 0 (FIGS. 13N, 13O), compared to HypoInflammaSkin control): reduced
- IFN-γ levels vs positive control (betamethasone) (Hypo-InflammaSkin models; treatment starting at Day 0): even lower than positive control
- TNF-α levels vs positive control (betamethasone) (Hypo-InflammaSkin models; treatment starting at Day 0): even lower than positive control
- AIM2 inflammasome expression (AIM2/Actin copy number) (AIM2 inflammasome): inhibit AIM2 inflammasome expression

Source: patent publication US20260174780A1, “BISMUTH-THIOL COMPOSITIONS AND METHODS FOR TREATING INFLAMMATORY DISEASES” (Microbion Corporation, priority 2022, published 2026)
